Measured values published in article PMC9944328 (Nature Communications, 2023).
“Also recorded” adds a separate entry of the source. Like-named read-outs stand apart in the source and are kept apart here.

Key:
[1] = molecular target: T1, SSTR3 (Homo sapiens, UniProt P32745); assay: SSTRs Gi-mediated cAMP inhibition, GloSensor, HEK293 (SSTR3 wild-type); assay type: cell-based; parameters: Bottom / Top / Span / Top (best-fit): unit not given here
T1 construct: The human full-length SSTRs and mutants were cloned into the pcDNA3.1+ vector; expressed in transfected cells; host or cells: HEK293 (ATCC, CRL-1573)
Experimental: (§1) The levels of the intracellular 3′, 5′-cyclic AMP (cAMP) were measured by the GloSensor cAMP assay (Promega) as described in the previous studies[28],[41] which has been widely used. The human full-length SSTRs and mutants were cloned into the pcDNA3.1+ vector with a HA signal sequence followed by a Flag tag at the N-terminus. […] Cells were then co-transfected with SSTR wild-type or mutants and GloSensor plasmids. After 24 h of transfection, the cells were dissociated with TrypLE™ Express Enzyme (1X) (Thermo Fisher Scientific) and collected by centrifugation at 500 × g for 5 min. Then the collected cells were suspended in Hank’s balanced salt solution [HBSS (Thermo Fisher Scientific)] supplemented with […] potassium salt solution (YEASEN), and then the suspension cells were seeded into 96-well plates with 90 μl/well. After incubating at room temperature for 40 min, 5 μM forskolin and ligands diluted in HBSS were added to each well and the plates were incubated at room temperature for 15 min. […] signals were measured using the Synergy H1 microplate reader (BioTek) and the data presented are means of at least three independent experiments.

[2] = molecular target: SSTR3 mutants (Homo sapiens, UniProt P32745); assay: SSTRs Gi-mediated cAMP inhibition, GloSensor, HEK293 (SSTR3 mutants); assay type: cell-based; parameters: Bottom / Top / Span / Top (best-fit): unit not given here
Experimental: as §1

[3] = molecular target: T2, SSTR3 mutants (Homo sapiens, UniProt P32745, H192T); assay: as above; assay type: cell-based; parameters: Bottom / Top / Span / Top (best-fit): unit not given here
T2 construct: The human full-length SSTRs and mutants were cloned into the pcDNA3.1+ vector; expressed in transfected cells; host or cells: HEK293 (ATCC, CRL-1573)
Experimental: as §1

[4] = system: SSTR2; assay: SSTR2 internalization by ELISA, HEK293, 30 min 37 °C (wild-type); assay type: cell-based, human
Experimental: HEK293 cells were seeded into 96-well microplates at a density of 4 × 10^4 cells/well and cultured for 24 h at 37 °C with 5% CO2 and were transfected using the same procedure as the cAMP accumulation assay. The plates were washed with washing buffer (PBS) the day after transfection, and were fixed with 4% formalin at room temperature for 30 min. Cells were washed with washing buffer and blocked with PBS supplemented with 5% BSA for 1 h at room temperature. After that, cells were incubated with anti-Flag antibody (1:1000 diluted with PBS containing 5% BSA, Proteintech: 66008-4-Ig) for 1 h at room temperature. After 1 h incubation, cells were washed with washing buffer and incubating with HRP-conjugated secondary antibody for 2 h at room temperature. After incubating and washing, 50 μl of chromogenic solution was added to each well, and reacted at room temperature for 10 min, and then 0.5 M HCl were added to stop the reaction.
All data presented are means at least three independent experiments.

[5] = system: GH3 cells; assay: Cell apoptosis assay, Annexin V-FITC/PI flow cytometry, GH3 cells overexpressing SSTR2, 48 h; assay type: cell-based, rat
Experimental: The rat pituitary GH3 cells (ATCC, CCL-82.1) were seeded in 12-well plates at 1.5 × 10^5/well. […] Then, the cells were collected for the apoptosis assay according to the instruction of the Annexin V-FITC/PI apoptosis detection kit (BD Biosciences). Briefly, the cells were washed with cold PBS and resuspended in 1 × binding buffer. Then, 5 μl of Annexin V-FITC was added and incubated for 10 min and stained with 5 μl of PI for 5 min in the dark at room temperature. All samples were acquired by a Novocyte flow cytometer (ACEA Biosciences, China), and data were analyzed with NovoExpress^TM software.

[6] = system: SSTR2; assay: Bias factor (β value), Gi cAMP inhibition versus β-arrestin recruitment; assay type: cell-based, human
Experimental: as §1
The NanoBiT β-arrestin 1 recruitment assays were carried out according to the method described previously. […] Human full-length SSTR wild-type and mutant vectors were C-terminally fused with a 15-amino acid flexible linker and the small fragment (SmBiT). HEK293 cells were seeded into six-well microplates at a density of 1.0 × 10^6 cells/well and cultured for 24 h at 37 °C with 5% CO2. After that, cells were co-transfected with pcDNA3.1+ vectors encoding SSTR wild-type or mutants and human β-arrestin 1. After transfecting for 24 h, the transfected cells were suspended and seeded into white 96-well plates, and then cultured at 37 °C overnight. After that the medium in each well was exchanged for 90 μl of 0.01% bovine serum albumin containing 20 μl of 50 μM coelenterazine h (Carbosynth) diluted in the HBSS assay buffer and incubated for 40 min at room temperature. Then, ligands diluted in the assay buffer was added to each well and the luminescence intensity was measured using the Synergy H1 microplate reader and detected at room temperature in a time period. All data presented are means of at least three independent experiments.
All data in this study were analyzed using GraphPad Prism 7 and were expressed as the error bars and the standard error of means ± SEM from at least n = 3 biologically independent experiments performed in triplicate. All curve data were normalized to the maximal wild-type and processed using a sigmoidal dose response curve in GraphPad Prism 7. Statistical differences between conditions were determined by one-way of variance ANOVA with Dunnett’s test or T-test.

[7] = molecular target: SSTR2 mutants (Homo sapiens, UniProt P30874, P220A); assay: Bystander BRET endosomal trafficking (β-arrestin 1-Nluc, FYVE-mVenus), HEK293 (SSTR2 mutants);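 note: Read-out is the BRET ratio between Nluc-fused β-arrestin 1 and the early endosome marker FYVE-mVenus, measured after ligand addition with coelenterazine h as substrate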
[8] = best-fit, SSTR3 WT-1 (F296D set)
[9] = best-fit, SSTR3 WT-1 (H192T set)
[10] = best-fit, SSTR3 WT-1 (M193I set)
[11] = best-fit, SSTR3 WT-1 (N101V set)
[12] = best-fit, SSTR3 WT-2 (F296D set)
[13] = best-fit, SSTR3 WT-2 (H192T set)
[14] = best-fit, SSTR3 WT-2 (M193I set)
[15] = best-fit, SSTR3 WT-2 (N101V set)
[16] = best-fit, SSTR3 WT-3 (F296D set)
[17] = best-fit, SSTR3 WT-3 (M193I set)
[18] = best-fit, SSTR3 WT-3 (N101V set)

T1 sequence (P32745 whole entry): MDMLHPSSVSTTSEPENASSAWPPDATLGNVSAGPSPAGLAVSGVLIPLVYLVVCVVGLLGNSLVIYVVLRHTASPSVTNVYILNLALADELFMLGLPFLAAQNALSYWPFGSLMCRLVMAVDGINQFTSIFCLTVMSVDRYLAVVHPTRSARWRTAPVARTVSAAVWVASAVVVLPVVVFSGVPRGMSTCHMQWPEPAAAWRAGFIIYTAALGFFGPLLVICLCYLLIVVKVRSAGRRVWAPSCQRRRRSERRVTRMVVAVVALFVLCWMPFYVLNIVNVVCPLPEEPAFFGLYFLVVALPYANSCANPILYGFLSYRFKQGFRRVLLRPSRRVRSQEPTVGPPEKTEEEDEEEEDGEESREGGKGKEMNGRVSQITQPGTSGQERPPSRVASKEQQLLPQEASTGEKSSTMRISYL
SSTR3 mutants (Homo sapiens, UniProt P32745), sequence (P32745 whole entry N104V): as the sequence (P32745 whole entry) above, with N104V counted along it
SSTR2 mutants, sequence (P30874 whole entry P220A, the tested form may be a part): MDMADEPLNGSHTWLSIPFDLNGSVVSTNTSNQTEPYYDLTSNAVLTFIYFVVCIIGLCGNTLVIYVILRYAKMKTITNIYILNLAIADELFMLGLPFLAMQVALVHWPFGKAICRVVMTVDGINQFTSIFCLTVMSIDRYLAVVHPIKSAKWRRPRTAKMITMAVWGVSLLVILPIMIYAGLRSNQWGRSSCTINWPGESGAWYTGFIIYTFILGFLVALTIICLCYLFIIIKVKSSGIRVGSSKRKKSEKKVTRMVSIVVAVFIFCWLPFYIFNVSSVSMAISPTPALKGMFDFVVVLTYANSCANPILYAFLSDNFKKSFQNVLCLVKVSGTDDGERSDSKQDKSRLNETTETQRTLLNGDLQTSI
T2 sequence (P32745 whole entry H192T): as the sequence (P32745 whole entry) above, with H192T counted along it

N#Cc1cccc(-c2ccc3ncc(-c4cc(F)cc(F)c4)c(N4CCC(N)CC4)c3c2)c1O [paltusotine]
EC50 [1]: 2.6 nM | Emax ([1]; HEK293, Suppl. Tables 4/5, SSTR3-WT, n=5): 36.7 ± 11.7% | Fold of WT ([1]; Suppl. Tables 4/5, SSTR3-WT): 1 | EC50 ([1]; Suppl. Tables 4/5, SSTR3-WT, n=5, read-out: EC50): 63.8 ± 1.33 nM | Bottom [1, 8]: 7.289 | LogEC50 [1, 8]: -5.765 | Span [1, 8]: 89.66 | Top [1, 8]: 96.95 | Bottom [1, 9]: -24.33 | LogEC50 [1, 9]: -7.352 | Span [1, 9]: 140.2 | Top [1, 9]: 115.9 | EC50 ([1]; best-fit, SSTR3 WT-1 (H192T set), read-out: EC50): 44.5 nM | Bottom [1, 10]: 2.721 | LogEC50 [1, 10]: -7.195 | Span [1, 10]: 103.1 | Top [1, 10]: 105.9 | EC50 ([1]; best-fit, SSTR3 WT-1 (M193I set), read-out: EC50): 63.8 nM | Bottom [1, 11]: 2.721 | LogEC50 [1, 11]: -7.195 | Span [1, 11]: 103.1 | Top [1, 11]: 105.9 | EC50 ([1]; best-fit, SSTR3 WT-1 (N101V set), read-out: EC50): 63.8 nM | Bottom [1, 12]: 2.721 | LogEC50 [1, 12]: -7.195 | Span [1, 12]: 103.1 | Top [1, 12]: 105.9 | EC50 ([1]; best-fit, SSTR3 WT-2 (F296D set), read-out: EC50): 63.8 nM | Bottom [1, 13]: -19.9 | LogEC50 [1, 13]: -7.557 | Span [1, 13]: 137.3 | Top [1, 13]: 117.4 | EC50 ([1]; best-fit, SSTR3 WT-2 (H192T set), read-out: EC50): 27.7 nM | Bottom [1, 14]: -0.9229 | LogEC50 [1, 14]: -7.198 | Span [1, 14]: 106.7 | Top [1, 14]: 105.8 | EC50 ([1]; best-fit, SSTR3 WT-2 (M193I set), read-out: EC50): 63.4 nM | Bottom [1, 15]: -0.442 | LogEC50 [1, 15]: -8.585 | Span [1, 15]: 97.55 | Top [1, 15]: 97.11 | Bottom [1, 16]: -0.9229 | LogEC50 [1, 16]: -7.198 | Span [1, 16]: 106.7 | Top [1, 16]: 105.8 | EC50 ([1]; best-fit, SSTR3 WT-3 (F296D set), read-out: EC50): 63.4 nM | Bottom [1, 17]: -0.442 | LogEC50 [1, 17]: -8.585 | Span [1, 17]: 97.55 | Top [1, 17]: 97.11 | Bottom [1, 18]: -0.9229 | LogEC50 [1, 18]: -7.198 | Span [1, 18]: 106.7 | Top [1, 18]: 105.8 | EC50 ([1]; best-fit, SSTR3 WT-3 (N101V set), read-out: EC50): 63.4 nM | Emax ([2]; HEK293): 90.7 ± 7.93% | Fold of WT ([2]; Suppl. Tables 4/5, SSTR3 N101(2.64)V): 1.31 | EC50 ([2]; Suppl. Tables 4/5, SSTR3 N101(2.64)V, n=3): 83.7 ± 1.31 nM | Bottom ([2]; best-fit, SSTR3 N101V-1): 2.574 | EC50 ([2]; best-fit, SSTR3 N101V-1): 85.3 nM | LogEC50 ([2]; best-fit, SSTR3 N101V-1): -7.069 | Span ([2]; best-fit, SSTR3 N101V-1): 181.5 | Bottom ([2]; best-fit, SSTR3 N101V-2): 5.233 | LogEC50 ([2]; best-fit, SSTR3 N101V-2): -7.01 | Span ([2]; best-fit, SSTR3 N101V-2): 137.4 | Bottom ([2]; best-fit, SSTR3 N101V-3): 5.233 | LogEC50 ([2]; best-fit, SSTR3 N101V-3): -7.01 | Span ([2]; best-fit, SSTR3 N101V-3): 137.4 | EC50 [3]: 58.1 ± 1.43 nM | Emax ([3]; HEK293): 108 ± 8.99% | Fold of WT ([3]; Suppl. Tables 4/5, SSTR3 H192(45.51)T): 0.91 | Bottom ([3]; best-fit, SSTR3 H192T-1): 14.85 | LogEC50 ([3]; best-fit, SSTR3 H192T-1): -7.173 | Span ([3]; best-fit, SSTR3 H192T-1): 475 | Top ([3]; best-fit, SSTR3 H192T-1): 489.8 | EC50 ([3]; best-fit, SSTR3 H192T-1, read-out: EC50): 67.2 nM | Bottom ([3]; best-fit, SSTR3 H192T-2): 37.09 | LogEC50 ([3]; best-fit, SSTR3 H192T-2): -7.251 | Span ([3]; best-fit, SSTR3 H192T-2): 569.9 | Top ([3]; best-fit, SSTR3 H192T-2): 607 | EC50 ([3]; best-fit, SSTR3 H192T-2, read-out: EC50): 56 nM | Receptor internalization ([4]; SSTR2 WT, compared with octreotide, Fig. 1d–f): less receptor internalization | Internalization of wild-type SSTR2 ([4]; same concentration for both drugs, also confocal and Bystander BRET): reduced | Apoptotic rate versus octreotide [5]: increased apoptotic rate | Proapoptotic activity [5]: able to activate proapoptotic pathways | Effect of microswitch mutations ([6]; CWxP, PIF, DRY and NPxxY motif mutants versus wild-type SSTR2): decreased the potency of β-arrestin recruitment more markedly than the activation ability of Gi signaling | Effect of mutants on both signals ([6]; D122(3.32) and Q126(3.36) mutants): markedly affected both β-arrestin and Gi signal | Signal bias ([6]; SSTR2, compared with octreotide): more G protein-biased ligand than octreotide; also recorded: better G-protein-biased agonist of SSTR2 compared with octreotide | Bottom (best-fit) ([7]; P220A-1 (run 1)): 0.5179 | Bottom (best-fit) ([7]; P220A-2 (run 2)): 2.929 | Bottom (best-fit) ([7]; P220A-3 (run 3)): -2.504
